Measured values: ChEMBL document CHEMBL2074546, “Inhibition of P-glycoprotein by flavonoid derivatives in adriamycin-resistant human myelogenous leukemia (K562/ADM) cells” (Cancer Lett, 2002)

What follows are molecules tested against ATP-dependent translocase ABCB1 (Homo sapiens, UniProt P08183) (assay: TP_TRANSPORTER: increase in Vincristine intracellular accumulation (0.025 uM) in K562/ADM cells). Settings: k562/adr.
Type: functional, cell-based

ATP-dependent translocase ABCB1, sequence (P08183 whole entry): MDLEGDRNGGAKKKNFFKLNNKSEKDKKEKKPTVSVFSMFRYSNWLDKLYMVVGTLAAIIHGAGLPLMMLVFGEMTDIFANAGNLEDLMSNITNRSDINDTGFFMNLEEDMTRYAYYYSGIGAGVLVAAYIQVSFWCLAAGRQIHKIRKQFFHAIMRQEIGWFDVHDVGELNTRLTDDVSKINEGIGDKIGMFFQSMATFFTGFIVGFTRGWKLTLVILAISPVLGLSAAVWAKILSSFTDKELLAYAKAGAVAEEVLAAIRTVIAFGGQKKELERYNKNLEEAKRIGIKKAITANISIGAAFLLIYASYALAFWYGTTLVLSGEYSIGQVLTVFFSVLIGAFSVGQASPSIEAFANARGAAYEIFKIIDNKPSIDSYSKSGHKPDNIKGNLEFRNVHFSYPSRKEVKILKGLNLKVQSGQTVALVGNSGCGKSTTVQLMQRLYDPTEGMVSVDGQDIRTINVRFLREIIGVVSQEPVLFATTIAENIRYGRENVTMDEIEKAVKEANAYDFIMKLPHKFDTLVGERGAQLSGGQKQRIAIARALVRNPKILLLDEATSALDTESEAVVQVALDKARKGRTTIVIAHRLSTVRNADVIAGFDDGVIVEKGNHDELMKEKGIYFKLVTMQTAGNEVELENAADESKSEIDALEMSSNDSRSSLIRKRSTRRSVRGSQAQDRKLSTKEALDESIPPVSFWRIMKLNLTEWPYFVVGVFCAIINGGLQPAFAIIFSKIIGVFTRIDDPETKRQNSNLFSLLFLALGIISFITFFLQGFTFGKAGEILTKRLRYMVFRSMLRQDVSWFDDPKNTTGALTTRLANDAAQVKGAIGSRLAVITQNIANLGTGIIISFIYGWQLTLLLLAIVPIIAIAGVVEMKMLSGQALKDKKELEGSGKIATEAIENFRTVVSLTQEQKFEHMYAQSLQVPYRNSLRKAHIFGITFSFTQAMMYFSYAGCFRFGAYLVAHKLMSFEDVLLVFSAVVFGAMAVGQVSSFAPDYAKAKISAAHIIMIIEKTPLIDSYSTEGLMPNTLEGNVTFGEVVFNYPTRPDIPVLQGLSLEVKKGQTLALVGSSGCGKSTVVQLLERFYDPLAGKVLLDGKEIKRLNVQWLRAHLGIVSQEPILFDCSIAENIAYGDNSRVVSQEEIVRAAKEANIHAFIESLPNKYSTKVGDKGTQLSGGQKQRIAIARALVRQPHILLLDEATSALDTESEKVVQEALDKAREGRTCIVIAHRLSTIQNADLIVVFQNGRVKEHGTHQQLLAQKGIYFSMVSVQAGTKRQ

| SMILES | Activity |
| --- | --- |
| CCOc1ccc(-c2oc3cc(OCC)cc(O)c3c(=O)c2OCC)c(OCC)c1 [MORIN PENTAETHYL ETHER] | inhibitor [(at a rough estimate) 1430 % of control] |
| C=CCOc1ccc(-c2oc3cc(OCC=C)cc(O)c3c(=O)c2OCC=C)c(OCC=C)c1 [MORIN PENTAALLYL ETHER] | inhibitor [(at a rough estimate) 500 % of control] |
| COc1ccc(-c2oc3cc(OC)cc(O)c3c(=O)c2OC)c(OC)c1 [MORIN PENTAMETHYL ETHER] | inhibitor [(at a rough estimate) 470 % of control] |
| CCCOc1ccc(-c2oc3cc(OCCC)cc(O)c3c(=O)c2OCCC)c(OCCC)c1 [MORIN PENTAPROPYL ETHER] | inhibitor [(at a rough estimate) 390 % of control] |
